In US20100286069A1, “CATIONIC PEPTIDE FOR DELIVERING AN AGENT INTO A CELL” (priority 2007, published 2010):
Entries after “also recorded” stand apart in the source; their conditions may differ. Where no end group is shown, it is not given here.

Columns and labels:
HEK293 cell line = assay: In vitro luciferase gene expression in HEK293 (Example 2); type: cell-based, human
Procedure: (§1) Cell culture: Both HEK293 and HepG2 cell lines were cultured in high glucose DMEM medium supplemented with 10% fetal bovine serum (FBS), 100 μg/mL penicillin, and 100 μg/mL streptomycin at 37° C. in a humidified 5% carbon dioxide incubator. 4T1 cell line was also cultured with the same condition as the other cell lines, but in RPMI 1640 growth medium supplemented with 10 mM HEPES.
(§2) In vitro gene expression: HEK293, HepG2, and 4T1 cells were seeded onto 24-well plates at 80,000, 80,000 and 50,000 cells/well, respectively, using the same growth medium and conditions as described previously. After one day, the cells achieved about 70-80% confluence, at which transfection experiments were performed. Briefly, peptide/pDNA complexes were prepared at N/P 1, 10, 20, 30, 35, 40, 45 and 50, and different pH in either sodium acetate buffer (pH 5) or phosphate buffer (pH 6.5 and 7.4). The transfection pH was firstly optimized using HEK293 cell lines and AK27 peptide. […] The total amount of DNA loaded was kept constant at 2.5 μg/well. Cells were allowed to incubate with serum and antibiotics-supplemented growth medium (500 μL/well), onto which the complex solutions (50 μL/well) were added. After four hours following the incubation with the complexes, the medium was then replaced with the fresh one. […] The relative light units (RLU) were measured using a luminometer (Lumat LB9507, Berthold, Germany). […]

HepG2 cell line = assay: In vitro luciferase gene expression in HepG2 (Example 2); type: cell-based, human; conditions: PEI N/P 10, pH 6.5
Procedure: as §1, §2

[1] = MTT cytotoxicity assay in three cell lines (Example 2); type: cell-based, human, mouse; conditions: HEK293, HepG2 and 4T1 cells; blank nanoparticles and pDNA complexes, even at higher N/P ratios
Procedure: as §1
Cytotoxicity assay: The cytotoxicity of AK27, AK32, AK27/pDNA and AK32/pDNA complexes were all measured using the standard MTT assay protocol. Briefly, HEK293, HepG2 and 4T1 cell lines were seeded onto 96-well plates at 10,000 cells/well, 8,000 cells/well, and 6,000 cells/well seeding density, respectively. Post cell-seeding, the cells were incubated for one day before being used for cytotoxicity assay. For cytotoxicity assay with AK27/pDNA, complexes at N/P ratios of 1, 10, 20, 30, 35, 40, 45 and 50 were prepared in phosphate buffer (pH 6.5) as described earlier. […] After homogenizing the solution, 100 μL of the samples was spectrophotometrically read in a microplate reader (Biorad) at 550 nm and 690 nm wavelength. The relative cell viability was measured as ([Abs550]sample−[Abs690]sample)/([Abs550]control−[Abs690]control)×100%.

[2] = Zeta potential measurement (Example 2); type: physicochemical; conditions: N/P ratio 40; phosphate buffer pH 6.5
Procedure: Particle size and Zeta potential measurement: The particle size and zeta potential of the complexes were measured by dynamic light scattering (Brookhaven Instrument Corp., Holtsville, N.Y., U.S.A.) and using Zetasizer (Malvern Instrument Ltd., Worchestershire, UK), respectively. Briefly, AK27/pDNA and AK32/pDNA complexes were formed in phosphate buffer (pH 6.5) at room temperature at different N/P ratios (i.e. 1, 10, 20, 30 and 40). All the particle size measurements were performed with a light source of 677 nm wavelength and 15° constant angle. The particle size measurement was repeated for 5 runs for each sample, and the data was reported as the effective mean diameter. The zeta potential measurement was repeated for 3 runs per samples, and the data was calculated automatically using the software from the electrophoretic mobility based on the Smoluchowski's formula.

[3] = system: HEK293, HepG2 and 4T1 cell lines; assay: In vitro luciferase gene expression, three cell lines (Example 2); type: cell-based, human, mouse; conditions: for luciferase gene expression level compared with PEI at N/P 10: general, three cell lines
Procedure: as §1
In vitro gene expression: HEK293, HepG2, and 4T1 cells were seeded onto 24-well plates at 80,000, 80,000 and 50,000 cells/well, respectively, using the same growth medium and conditions as described previously. After one day, the cells achieved about 70-80% confluence, at which transfection experiments were performed. Briefly, peptide/pDNA complexes were prepared at N/P 1, 10, 20, 30, 35, 40, 45 and 50, and different pH in either sodium acetate buffer (pH 5) or phosphate buffer (pH 6.5 and 7.4). The transfection pH was firstly optimized using HEK293 cell lines and AK27 peptide. […] The total amount of DNA loaded was kept constant at 2.5 μg/well. Cells were allowed to incubate with serum and antibiotics-supplemented growth medium (500 μL/well), onto which the complex solutions (50 μL/well) were added. After four hours following the incubation with the complexes, the medium was then replaced with the fresh one. After 68 hours, the culture medium was removed, and the cells were washed with 0.5 mL of PBS (pH 7.4). 0.2 mL of reporter lysis buffer (Promega, Madison, Wis.) was then added to each well to lyse the cells. The cell suspension was next subjected to two cycles of freezing and thawing, and was centrifuged at 14,000 rpm for 5 minutes. 20 μL of the supernatant of the cell lysate was mixed with 100 μL of luciferase substrate (Promega). The relative light units (RLU) were measured using a luminometer (Lumat LB9507, Berthold, Germany). The luciferase activity was normalized to protein content using the BCA protein assay (Sigma). In all these experiments, both naked DNA-transfected cells and PEI-transfected cells were used as negative and positive controls, respectively. […]

pDNA = assay: Gel retardation assay (Example 2); type: binding; conditions: PBS; N/P 1 to 10
Procedure: Complex formation of peptide amphiphiles with DNA: Complexes were formed at different N/P ratios by directly mixing equal volume of peptide and plasmid DNA (pDNA) solutions to achieve the intended N/P ratio, which measured the relative molar content of nitrogen atoms (N) in each peptide molecule to that of the phosphate groups (P) in each pDNA molecule, and was calculated based on the standardized 3 μgDNA/nmole DNA rule of thumb as described previously (31). To allow for complete electrostatic interaction between peptide and pDNA molecules, the solution was equilibrated at room temperature for 30 minutes upon mixing before being used for further studies.
Gel retardation assay: Various formulations of AK27/pDNA and AK32/pDNA complexes, ranging from N/P ratios of 1 to 10, were prepared in PBS. Post-equilibration, the complexes were electrophoresed on 1% agarose gel (stained with 4 μL of 0.5 μg/ml ethidium bromide per 50 mL of gel) in 0.5×TBE buffer at 80 V for 60 minutes. The gel was then analysed on a UV illuminator (Chemi Genius, Evolve, Singapore) to show the position of the complexed pDNA relative to that of the non-complexed form.
DNA binding: Gel retardation assays of the two peptide-based amphiphiles were performed to qualitatively study the electrostatic interaction between the peptide and pDNA.

4T1 cell line = assay: In vitro luciferase gene expression in 4T1 (Example 2); type: cell-based, mouse; conditions: PEI N/P 10, pH 6.5
Procedure: as §1, §2

[4] = Critical micelle concentration (CMC) measurement with pyrene; type: physicochemical; conditions: PBS (pH 7.4)
Procedure: Critical micelle concentration (CMC) measurement: The CMC of the peptide amphiphile was measured using pyrene as the probe fluorescence molecule. A series of peptide solutions was prepared at various concentrations (0.01 to 2000 mg/L) in PBS. When excited at 337 nm wavelength, the electrons in the pyrene molecules absorb energy, and in turn, emit photons at wavelengths between 350-450 nm, as indicated by five emission peaks in the pyrene fluorescence spectrum (30). At the concentration of amphiphile above its CMC, when the amphiphile forms core/shell structured nanoparticles having a hydrophobic core and a hydrophilic shell, the pyrene molecules aggregate and are solubilized into the core giving […] intensity of the third peak in the emission spectrum. Therefore, monitoring the intensity of the third peak of pyrene's emission spectra, usually normalized to the first peak's intensity, provides a means to estimate the transition concentration (i.e. CMC) of the amphiphile aggregation.
The inflection point gives an estimate of CMC of AK27 in PBS (pH 7.4), which was approximately 120 mg/L.

In the case of “AAAAAAAAAAAAHHHHHKKKKKKKKKKKKKKK [AK32, (A)12(H)5(K)15]”, the “highest luciferase expression level compared with PEI” value (HEK293 cell line; PEI N/P 10, pH 6.5) is reported as “comparable to that provided by PEI; also recorded: comparable to that yielded by PEI”, the “highest luciferase expression level compared with PEI” value (HepG2 cell line) is reported as “comparable to that provided by PEI; also recorded: comparable to that yielded by PEI” and the viability at 4 h [1] is reported as over 80%. The “highest zeta potential of peptide/pDNA complexes” value [2] was about 18.2±0.5 mV, the “luciferase gene expression level compared with PEI at N/P 10” value [3] was “almost comparable” and the “N/P ratio for complete retardation of DNA” value (pDNA) was 2. The “highest luciferase expression level compared with PEI” value (4T1 cell line) was “less than an order of magnitude lower”.
For “AAAAAAAAAAAAHHHHHKKKKKKKKKK [AK27, (A)12(H)5(K)10]”, the “optimum complexation pH for transfection” value (HEK293 cell line; pH 5, 6.5 and 7.4 tested) was “around 6.5”, the viability at 4 h [1] was over 80% and the CMC [4] was “approximately 120 mg/L”. The “highest zeta potential of peptide/pDNA complexes” value [2] was “approximately 7.8±1.1 mV”, the “highest luciferase expression level compared with PEI” value ([3]; at N/P ratio of 45, PEI N/P 10) was “about one order of magnitude lower” and the “luciferase gene expression level compared with PEI at N/P 10” value [3] was “an order of magnitude less”. For the same sequence, the “N/P ratio for complete retardation of DNA” value (pDNA) was 3.
